Blank lines part the entries; values can stand above or below the compound they belong to.
How the values were obtained:
[1] = Mass coefficients of organs (pancreas, liver, kidneys) of rats; format: in vivo, male rats of Wistar line; conditions: M ± m; for weight coefficient, Kidneys / weight coefficient, Liver: in %
Procedure: To calculate mass coefficients the pancreas, liver and kidneys of the animals were extracted. The organs were weighed and the mass coefficients were calculated by the following formula:
Mass coefficient=(organ weight/animal body weight)×100%

[2] = Mass coefficients of liver and pancreas of rabbits; format: in vivo, male rabbits of Californian breed; conditions: for pancreatic mass coefficients relative to the control group: rosuvastatin 40 mg, AGA 100 mg
[3] = test system: experimental rat hypercholesterolemia model; assay: Lipid spectrum of blood in experimental rat hypercholesterolemia model; format: in vivo, male rats of Wistar line
Procedure: The animals used were male rats of Wistar line. […] The proposed model using rats as the experimental animals is a reproducible standard model for evaluation of hypocholesterolemic effect.
(§1) Evaluation of hypocholesterolemic efficacy and safety of pharmaceutical combination was performed in vivo in experimental rat hypercholesterolemia model.
(§2) For 90 days the studied animals received hypercholesterol diet for pathology induction. The diet included Cholesterol+Cholic acid+Overheated fats (deep fat).
For 90 days the animals received the said ration ad libitum (30 g feed per animal). Development of hypercholesterolemia in animals was evaluated based on changes in lipid spectrum parameters on Day 30 of the study.
(§3) Drugs were introduced intragastrically with an esophageal bougie daily on Day 31-90 of the study at the same time of day.
Biochemical parameters and activity of blood serum enzymes (total cholesterol (CHS), LDL-CHS, HDL-CHS, triglycerides.
1.0-1.84 ml blood samples for the study of biochemical parameters were taken from tail vein of rats. Blood samples were taken from the animals after 14-15-hour's fasting at same time of day (9.00-11.00). For biochemical parameters tests a Biochemical Analyzer A-25 (Biosystems, Spain) was used. […]

[4] = Dynamics of body weight of rabbits (Schemes A and B); format: in vivo, male rabbits of Californian breed; conditions: for Body weight: Scheme A, M ± SEM
[5] = test system: experimental rat hypercholesterolemia model; assay: Biochemical blood analysis (drug toxicity parameters) in rat hypercholesterolemia model; format: in vivo, male rats of Wistar line
Procedure: as §1, §2, §3
Biochemical parameters and activity of serum enzymes (aspartate- and alanine aminotransferase, creatine phosphokinase, urea, serum amylase, total bilirubin, direct bilirubin, indirect bilirubin, serum glucose, cations K^+, Na^+).
1.0-1.84 ml blood samples for the study of biochemical parameters were taken from tail vein of rats. Blood samples were taken from the animals after 14-15-hour's fasting at same time of day (9.00-11.00). For biochemical parameters tests a Biochemical Analyzer A-25 (Biosystems, Spain) was used.
Vol. 4. pp. 1794-1798; Pearlman F C and Lee R T Y. Clin Chem 1974, 20, 447-453; Zoppi F et al, Peracino A., Fenili D., Marcovina S. and Ramella C. Giorn It Chim Cl. […] C. et al Clin Chem. 1974. Vol. 20. pp. 470-475; and in Meiattini F., et al, Clin Chem. 1978. Vol. 24. pp. 2161-2165 (total cholesterol); Warnick G R et al. Clin Chem 2001, 47, 1579-96 (HDL/LDL); Bucolo G and David H. Clin Chem. 1973.-Vol. 19. pp. 476-482; and in Fossati P. and, Prencipe L., Clin Chem. 1982. Vol. 28. pp. 2077-2080 (triglycerides); Trinder P. Ann Clin Biochem. 1969. Vol. 6. pp. 24-27).

[6] = RV + AGA 10 + 108 mg, RV 10 mg, AGA 108 mg
[7] = Day 30 of treatment (Day 60 of study), dose 10 mg
[8] = Day 30 of treatment (Day 60 of study), dose 20 mg
[9] = Day 60 of treatment (Day 90 of study), dose 10 mg
[10] = Day 60 of treatment (Day 90 of study), dose 20 mg
[11] = blood, Day 60 of the treatment (Day 90 of the study), RV + AGA 10 + 108 mg, RV 10 mg, AGA 108 mg
[12] = FV + GA 80 + 90 mg, FV 80 mg, GA 90 mg
[13] = Day 30 of treatment (Day 60 of study), dose 80 mg
[14] = Day 60 of treatment (Day 90 of study), dose 80 mg
[15] = blood, Day 60 of the treatment (Day 90 of the study), FV + GA 80 + 90 mg, FV 80 mg, GA 90 mg
[16] = LV + SGA 20 + 108 mg, LV 20 mg, SGA 108 mg
[17] = Day 30 of treatment (Day 60 of study), dose 108 mg
[18] = Day 60 of treatment (Day 90 of study), dose 108 mg
[19] = blood, Day 60 of the treatment (Day 90 of the study), LV + SGA 20 + 108 mg, LV 20 mg, SGA 108 mg

- weight coefficient, Pancreas [1, 6]: 0.35 ± 0.04
- weight coefficient, Kidneys [1, 6]: 0.75 ± 0.03
- weight coefficient, Liver [1, 6]: 4.42 ± 0.11
- Mass ratios, M ± SEM, Liver ([2]; Scheme A, dose 20 mg): 3.8 ± 0.2
- Mass ratios, M ± SEM, Pancreas ([2]; Scheme A, dose 20 mg): 0.07 ± 0.006
- Mass ratios, M ± SEM, Liver ([2]; Scheme A, dose 40 mg): 4.0 ± 0.1
- Mass ratios, M ± SEM, Pancreas ([2]; Scheme A, dose 40 mg): 0.09 ± 0.004
- pancreatic mass coefficients relative to the control group ([2]; Scheme A): significant increase
- Mass ratios, M ± SEM, Liver ([2]; Scheme B, dose 20 mg): 3.8 ± 0.2
- Mass ratios, M ± SEM, Pancreas ([2]; Scheme B, dose 20 mg): 0.09 ± 0.004^12
- pancreatic mass coefficients relative to the control group ([2]; Scheme B): statistically significant increase
Compound: CC(C)c1nc(N(C)S(C)(=O)=O)nc(-c2ccc(F)cc2)c1/C=C/[C@@H](O)C[C@@H](O)CC(=O)O [RV, (3R,5S,6E)-7-[4-(4-fluorophenyl)-2-(N-methylmethanesulfonamido)-6-(propan-2-yl)pyrimidin-5-yl]-3,5-dihydroxyhept-6-enoic acid]
- HDL CHS [3, 7]: 0.81 ± 0.05 mmol/L
- LDL CHS [3, 7]: 3.23 ± 0.21 mmol/L
- TG [3, 7]: 1.21 ± 0.10 mmol/L
- Total CHS [3, 7]: 4.0 ± 0.2 mmol/L
- HDL CHS [3, 8]: 0.9 ± 0.03 mmol/L
- LDL CHS [3, 8]: 3.00 ± 0.10 mmol/L
- TG [3, 8]: 1.27 ± 0.03 mmol/L
- Total CHS [3, 8]: 3.6 ± 0.1 mmol/L
- HDL CHS [3, 9]: 0.81 ± 0.05 mmol/L
- LDL CHS [3, 9]: 2.90 ± 0.21 mmol/L
- TG [3, 9]: 1.21 ± 0.10 mmol/L
- Total CHS [3, 9]: 3.7 ± 0.2 mmol/L
- HDL CHS [3, 10]: 0.91 ± 0.03 mmol/L
- LDL CHS [3, 10]: 2.72 ± 0.20 mmol/L
- TG [3, 10]: 1.29 ± 0.03 mmol/L
- Total CHS [3, 10]: 3.3 ± 0.1 mmol/L
- Body weight ([4]; Day 0 (Before the study), dose group 20 mg): 2874 ± 165 g
- Body weight ([4]; Day 0 (Before the study), dose group 40 mg): 2787 ± 141 g
- Body weight ([4]; Day 28 (in the setting of pathology without treatment), dose group 20 mg): 3350 ± 157 g
- Body weight ([4]; Day 28 (in the setting of pathology without treatment), dose group 40 mg): 3428 ± 146 g
- Body weight ([4]; Day 90 (in the setting of pathology with treatment), dose 20 mg): 4340 ± 53 g
- Body weight ([4]; Day 90 (in the setting of pathology with treatment), dose 40 mg): 4348 ± 66 g
- Body weight, M ± SEM, Day 120 (in the setting of pathology with treatment) ([4]; Scheme B, dose 20 mg): 4699 ± 131^1 g
- Body weight, M ± SEM, Day 0 (Before the study) ([4]; Scheme B, dose 20 mg, baseline): 2665 ± 85 g
- Body weight, M ± SEM, Day 56 (in the setting of pathology without treatment) ([4]; Scheme B, dose 20 mg, before treatment): 3479 ± 106 g
- ALT [5, 7]: 179 U/l
- AST [5, 7]: 182 U/l
- Amylase [5, 7]: 641 U/l
- Bilirubin direct [5, 7]: 2.7 mg/dL
- Bilirubin indirect [5, 7]: 2.1 mg/dL
- Bilirubin total [5, 7]: 4.6 mg/dL
- CPK [5, 7]: 702 U/l
- Glucose [5, 7]: 158 mg/dL
- Potassium [5, 7]: 4.3 mM
- Sodium [5, 7]: 128 mmol
- Urea [5, 7]: 7.2 mmol/L
- ALT [5, 11]: 139 U/l
- AST [5, 11]: 190 U/l
- Amylase [5, 11]: 584 U/l
- Bilirubin direct [5, 11]: 2.9 mg/dL
- Bilirubin indirect [5, 11]: 1.7 mg/dL
- Bilirubin total [5, 11]: 4.8 mg/dL
- CPK [5, 11]: 597 U/l
- Glucose [5, 11]: 130 mg/dL
- Potassium [5, 11]: 2.2 mM
- Sodium [5, 11]: 130 mmol
- Urea [5, 11]: 6.4 mmol/L

- weight coefficient, Pancreas [1, 12]: 0.37 ± 0.03^1
- weight coefficient, Kidneys [1, 12]: 0.75 ± 0.03
- weight coefficient, Liver [1, 12]: 4.41 ± 0.12
Compound: CC(C)n1c(/C=C/[C@@H](O)C[C@@H](O)CC(=O)O)c(-c2ccc(F)cc2)c2ccccc21 (stereo in doubt) [FV, (3R,5S,6E)-7-[3-(4-fluorophenyl)-1-(propan-2-yl)-1H-indol-2-yl]-3,5-dihydroxyhept-6-enoic acid]
- HDL CHS [3, 13]: 0.61 ± 0.04 mmol/L
- LDL CHS [3, 13]: 3.31 ± 0.44 mmol/L
- TG [3, 13]: 1.39 ± 0.14 mmol/L
- Total CHS [3, 13]: 5.0 ± 0.3 mmol/L
- HDL CHS [3, 14]: 0.72 ± 0.03 mmol/L
- LDL CHS [3, 14]: 3.52 ± 0.44 mmol/L
- TG [3, 14]: 1.45 ± 0.14 mmol/L
- Total CHS [3, 14]: 4.9 ± 0.4 mmol/L
- ALT [5, 13]: 170 U/l
- AST [5, 13]: 191 U/l
- Amylase [5, 13]: 637 U/l
- Bilirubin direct [5, 13]: 2.6 mg/dL
- Bilirubin indirect [5, 13]: 2.2 mg/dL
- Bilirubin total [5, 13]: 4.0 mg/dL
- CPK [5, 13]: 690 U/l
- Glucose [5, 13]: 150 mg/dL
- Potassium [5, 13]: 3 mM
- Sodium [5, 13]: 125 mmol
- Urea [5, 13]: 7.3 mmol/L
- ALT [5, 15]: 148 U/l
- AST [5, 15]: 200 U/l
- Amylase [5, 15]: 590 U/l
- Bilirubin direct [5, 15]: 1.4 mg/dL
- Bilirubin indirect [5, 15]: 1.6 mg/dL
- Bilirubin total [5, 15]: 4.2 mg/dL
- CPK [5, 15]: 680 U/l
- Glucose [5, 15]: 127 mg/dL
- Potassium [5, 15]: 2.3 mM
- Sodium [5, 15]: 124 mmol
- Urea [5, 15]: 6.3 mmol/L

- weight coefficient, Pancreas [1, 16]: 0.22 ± 0.01^2
- weight coefficient, Kidneys [1, 16]: 0.81 ± 0.02
- weight coefficient, Liver [1, 16]: 4.42 ± 0.10
Compound: CC1(C)[C@@H](O[C@H]2O[C@H](C(=O)O)[C@@H](O)[C@H](O)[C@H]2O[C@@H]2O[C@H](C(=O)O)[C@@H](O)[C@H](O)[C@H]2O)CC[C@]2(C)[C@H]3C(=O)C=C4[C@@H]5C[C@@](C)(C(=O)O)CC[C@]5(C)CC[C@@]4(C)[C@]3(C)CC[C@@H]12.[Na+] [SGA, sodium glycyrrhizinate]
- HDL CHS [3, 17]: 0.53 ± 0.04 mmol/L
- LDL CHS [3, 17]: 4.30 ± 0.41 mmol/L
- TG [3, 17]: 1.3 ± 0.11 mmol/L
- Total CHS [3, 17]: 5.0 ± 0.4 mmol/L
- HDL CHS [3, 18]: 0.63 ± 0.03 mmol/L
- LDL CHS [3, 18]: 4.00 ± 0.3 mmol/L
- TG [3, 18]: 1.6 ± 0.11 mmol/L
- Total CHS [3, 18]: 5.0 ± 0.4 mmol/L
- ALT [5, 17]: 91 U/l
- AST [5, 17]: 125 U/l
- Amylase [5, 17]: 600 U/l
- Bilirubin direct [5, 17]: 3.0 mg/dL
- Bilirubin indirect [5, 17]: 1.2 mg/dL
- Bilirubin total [5, 17]: 4.3 mg/dL
- CPK [5, 17]: 308 U/l
- Glucose [5, 17]: 110 mg/dL
- Potassium [5, 17]: 2.5 mM
- Sodium [5, 17]: 132 mmol
- Urea [5, 17]: 6.8 mmol/L
- ALT [5, 19]: 102 U/l
- AST [5, 19]: 123 U/l
- Amylase [5, 19]: 603 U/l
- Bilirubin direct [5, 19]: 2.0 mg/dL
- Bilirubin indirect [5, 19]: 1.9 mg/dL
- Bilirubin total [5, 19]: 2.9 mg/dL
- CPK [5, 19]: 331 U/l
- Glucose [5, 19]: 120 mg/dL
- Potassium [5, 19]: 3.2 mM
- Sodium [5, 19]: 121 mmol
- Urea [5, 19]: 5.2 mmol/L

— patent US20170304336A1, “COMBINATION” (priority 2014, published 2017)
